Usually IC50 stands for the concentration that inhibits the measured activity by half. A lower IC50 goes with inhibition by little substance.

Data on three compounds can be found in US9902701B2, “Pyridazones and triazinones for treatment and prophylaxis of hepatitis B virus infection” (priority 2014, dated 2018).

SMILES strings stand for the structures.

This assay relates to HBsAg. Description: HBsAg assay: chemiluminescence immunoassay (CLIA) of secreted HBsAg in supernatant of HepG2.2.15 cells. The class given is cell-based, HBV. To be noted: Hepatitis B virus. The procedure:
HepG2.2.15 cells (Acs et al. Proc Natl Acad Sci USA, 84, (1987), 4641-4), a constitutively HBV-expressing cell line were cultured in DMEM+Glutamax-I medium (Invitrogen, Carlsbad, Calif., USA), supplemented with 10% fetal bovine serum (Invitrogen) and G418 (Invitrogen) at a final concentration of 200 mg/L and maintained in 5% CO2 at 37° C.
HepG2.2.15 cells were seeded in duplicate into white, 96-well plates at 1.5×10^4 cells/well. The cells were treated with a three-fold serial dilution series of the compounds in DMSO. The final DMSO concentration in all wells was 1% and DMSO was used as no drug control.
The HBsAg chemiluminescence immunoassay (CLIA) kit (Autobio Diagnostics Co., Zhengzhou, China, Catalog number: CL0310-2) was used to measure the levels of secreted HBV antigens semi-quantitatively. For the detection 50 μL/well culture supernatant was used and HBsAg was quantified using HBsAg chemiluminescence immunoassay (CLIA) kit (Autobio Diagnostics Co., Zhengzhou, China, Catalog number: CL0310-2), 50 μL of the supernatant was transferred to the CLIA assay plate and 50 μL of enzyme conjugate reagent was added into each well. The plates were sealed and gently agitated for 1 hour at room temperature. The supernatant-enzyme-mixture was discarded and wells were washed 6 times with 300 μL of PBS. The residual liquid was removed by plating the CLIA plate […] on absorbent tissue paper. 25 μL of substrates A and B were added to each well. Luminance was measured using a luminometer (Mithras LB 940 Multimode Microplate Reader) after 10 minutes incubation. Dose-response curves were generated and the IC50 value was extrapolated by using the E-WorkBook Suite (ID Business Solutions Ltd., Guildford, UK). The IC50 was defined as the compound concentration (or conditioned media log dilution) at which HBsAg secretion was reduced by 50% compared to the no drug control.
The compound `CC(C)N(C(=O)c1ccc(N(C)C(=O)CN2N=C(c3ccc(Cl)cc3)CCC2=O)cc1)C(C)C` [Example 1-12, 4-[[2-[3-(4-Chlorophenyl)-6-oxo-4,5-dihydropyridazin-1-yl]acetyl]-methyl-amino]-N,N-diisopropyl-benzamide] had an IC50 of 885 nM.

Consider `CN(C(=O)CN1N=C(c2ccc(Cl)c(F)c2)CCC1=O)c1ccc(F)cc1` [Example 1-22, 2-[3-(4-Chloro-3-fluoro-phenyl)-6-oxo-4,5-dihydropyridazin-1-yl]-N-(4-fluorophenyl)-N-methyl-acetamide], for which the IC50 was determined as 940 nM.

For `COC(=O)c1ccc(N(C)C(=O)CN2N=C(c3ccc(Cl)cc3)CCC2=O)cc1` [Example 1-11, Methyl 4-[[2-[3-(4-chlorophenyl)-6-oxo-4,5-dihydropyridazin-1-yl]acetyl]-methyl-amino]benzoate], it took 8740 nM to reach half-maximal inhibition (IC50).
